Tests used:
A431 (epidermoid) = test: MTT cytotoxicity assay, A431; format: cell-based; details: Homo sapiens, A-431, 96 h, read-out: IC50 (nM) A431
Procedure: (§1) The cytotoxicity potential of the compounds of the invention 16c-h was compared with the comparative compounds 16a, 16b and GWL-78 in a number of tumour cell lines and the non-cancer cell line WI38 after 96 hours exposure using the MTT (3-(4,5-Dimethylthiazol-2-yl)-2,5-diphenyltetrazolium bromide) colorimetric assay, as described below.
(§2) A panel of several types of human cancer cell lines including epidermoid (A431), lung (A549), ovarian (A2780) and breast (MCF7 and MDAMB-231), as well as the non-tumour cell line WI38, were used to determine the cytotoxicity of the compounds. The cells were grown in normal conditions at 37° C. under a 5% CO2 humidified atmosphere, either in Dulbecco's Modified Eagle Medium or Modified Eagle Medium (depending on the cell line), supplemented with 10% fetal bovine serum (Biosera, UK), 1% L-glutamine, 1% non-essential amino acids and 0.05% hydrocortisone (Gibco, Invitrogen, USA). Cells were then seeded into 96-well plates in a total volume of 160 μl, and allowed to reach a 30-40% degree of confluence before starting the experiment. The ligands were dissolved in sterilized ultrapure water at a maximum concentration of 100 μM, and serial decimal dilutions prepared. These were added to the cells in a volume of 40 μl. After 96 hours of continuous exposure to each ligand, the cytotoxicity was determined by the MTT (3-(4,5-Dimethylthiazol-2-yl)-2,5-diphenyltetrazolium bromide) (Lancaster Synthesis Ltd, UK) colorimetric assay (Skehan P, S. R., et al., Journal of the National Cancer Institute 1990, 82, 1107). Absorbance was quantified by spectrophotometry at A=570 nm (ELx808, Bio-Tek Instruments, Inc., USA). IC50 values were calculated by a dose-response analysis using the Origin 6.0™ software.

Mia Paca 2 = test: MTT cytotoxicity assay, Mia Paca 2; format: cell-based; details: Homo sapiens, MIA PaCa-2, 96 h, read-out: IC50 (nM) Mia Paca 2
Procedure: as §1, §2

[1] = MTD (maximum tolerated dose) study, intraperitoneal dosing; format: in vivo, mouse
Procedure: Initially a small scale study was carried out to determine the MTD (maximum tolerated dose) in Swiss-Webster mice using intraperitoneal dosing (IP). […] As 16f provided a marginally better toxicity profile in the MTD study, it was decided to carry out more extensive in vivo tumour xenograft studies on this molecule.

OCT-4 = test: Transcription Factor Activation Profiling Array Assay (Signosis), HeLa; format: cell-based; details: 10 nM, 4 hours
Procedure: (§3) 16f was evaluated in a commercial Transcription Factor Activation Profiling Array Assay™ (Signosis) using the HeLa cell line. In this assay the activities of 48 transcription factors could be monitored simultaneously using a collection of biotin-labeled DNA probes based on the consensus sequences of individual transcription factor DNA-binding sites. […] The activity of NF-κB was reduced by almost 50%.

EGR = test: as above; format: cell-based; details: 10 nM, 4 hours
Procedure: as §3

NF-κB = test: as above; format: cell-based; details: 10 nM, 4 hours
Procedure: as §3

NFAT = test: as above; format: cell-based; details: 10 nM, 4 hours
Procedure: as §3

SMAD = test: as above; format: cell-based; details: 10 nM, 4 hours
Procedure: as §3

NFκB = test: Immunohistochemical staining of xenograft tumour cross-sections; format: in vivo, mouse; details: treated vs controls
Procedure: (§4) An in vivo study of 16f was carried out in a pancreatic cancer xenograft mouse model, in a similar manner to the above. The drug (16f) treated group was administered an IV dose of 300 μg/Kg/day for 5 consecutive days followed by 2 drug free days, and the cycle was continued for 3 weeks.

[2] = tested on: Mia Paca 2 pancreatic cancer xenograft; test: Mia Paca 2 pancreatic cancer xenograft in mouse model; format: in vivo
Procedure: as §4

A2780 (ovarian) = test: MTT cytotoxicity assay, A2780; format: cell-based; details: Homo sapiens, A2780, 96 h, read-out: IC50 (nM) A2780
Procedure: as §1, §2

A549 (lung) = test: MTT cytotoxicity assay, A549; format: cell-based; details: Homo sapiens, A549, 96 h, read-out: IC50 (nM) A549
Procedure: as §1, §2

WI38 = test: MTT cytotoxicity assay, non-tumour cell line WI38; format: cell-based; details: Homo sapiens, WI-38, 96 h, read-out: IC50 (nM) WI38
Procedure: as §1, §2

[3] = tested on: MDA MB 231 breast cancer xenograft; test: ER-negative MDA MB 231 breast cancer xenograft study; format: in vivo, mouse; details: for in vivo antitumour activity compared to control mice: female MF1 nude mice
Procedure: In vivo studies of the activity of 16f were carried out in an ER-negative MDA MB 231 breast cancer xenograft in a mouse model. The human breast cancer cell line MDA-MB-231 (5×10^8 cells) was employed to establish xenografts in the flanks of female MF1 nude mice, 2-3 months old and weighing 20-25 g. Subsequent passaging was by the subcutaneous implantation of small tumour pieces (approx 1 mm^3) into the flank. When the tumours reached approx. 0.06 cm^3 (three weeks post implantation) they were divided into 3 groups of 4 mice. The drug treated groups were administered with an IV dose (in DMSO) of either 250 μg/Kg/day or 300 μg/Kg/day for 5 consecutive days followed by two drug free days for 3 weeks, followed by 2 consecutive days in week 4 at which point the dosage was stopped.

phosphorylated IκBα = test: Western Blotting in CLL cells, surrogate for NF-κB activity; format: cell-based; details: 24 hours incubation, concentrations down to 0.1 nM
Excerpt: (§5) Based on the hypothesis that 16f may down-regulate the expression of NF-κB-dependent genes (e.g., IκB, BCL2, BCLXL) by binding to the cognate DNA sequence of NF-κB, thereby blocking interaction of the transcription factor protein and inhibiting transcription of a number of genes, it was decided to explore this possibility in CLL cells in which NF-κB signaling is known to be active and closely correlates with the initiation and progression of malignancy.

phosphorylated-p65 = test: as above; format: cell-based; details: 24 hours incubation
Excerpt: as §5

primary CLL cells = test: Annexin V/propidium iodide flow cytometry assay in primary CLL cells; format: cell-based; details: CLL cell
Procedure: The cytotoxicity potential of the compounds of the invention 16c-h was also compared with the comparative compounds 16a, 16b and GWL-78 in a primary CLL cell lines using the Annexin V assay (van Engeland, M, et al., Cytometry 1998, 31, 1-9), as described below.
Freshly isolated peripheral blood CLL cells (1×10^8 mL^−1) were cultured in RPMI medium (Invitrogen, Paisley, U.K.) supplemented with 100 U/mL penicillin, […] streptomycin, and 10% fetal calf serum. The cells were incubated at 37° C. in a humidified 5% CO2 atmosphere in the presence of each compound. All compounds were dissolved in DMSO and were evaluated in serial dilutions against the primary CLL cells. In addition, control cultures were carried out to which no drug was added. The cytotoxic effects of the compounds were quantified using an annexin V/propidium iodide flow cytometry assay (Bender Medsystems, Vienna, Austria). All assays were performed in duplicate, and LD50 values were calculated from sigmoidal dose-response curves using the Prism 6.0 software (Graphpad Software Inc., San Diego, Calif.). The sigmoidal dose-response curves were derived by plotting log [compound concentration] against the percentage apoptosis induced by that concentration. A wide range of concentrations were used to establish the biologically active range for each individual compound.

Structure (SMILES): COC(=O)c1cc(-c2ccc(NC(=O)c3nc(NC(=O)CCCOc4cc5c(cc4OC)C(=O)N4CCC[C@H]4C=N5)cn3C)cc2)cn1C [Compound 16f, (S)-methyl 4-(4-(4-(4-(7-methoxy-5-oxo-2,3,5,11a-tetrahydro-1H-pyrrolo[2,1-c][1,4]benzodiazepine-8-yloxy)butanamido)-1-methyl-1H-imidazole-2-carboxamido)phenyl)-1-methyl-1H-pyrrole-2-carboxylate]
- IC50 (A431 (epidermoid)): 0.018 nM
- IC50 (Mia Paca 2): 0.0021 nM
- weight loss ([1]; Swiss-Webster mice, IP, 400 μg/Kg/day): insignificant weight loss
- weight loss or other signs of toxicity ([1]; repeat MTD experiment, 350 μg/Kg/day): did not show any weight loss or other signs of toxicity
- down-regulation of OCT-4 activity (OCT-4): at least 30%
- down-regulation of EGR activity (EGR): at least 30%
- reduction of NF-κB activity (NF-κB; specific value): ~50%
- down-regulation of NF-κB activity (NF-κB; top five, at least): at least 30%
- down-regulation of NFAT activity (NFAT): at least 30%
- down-regulation of SMAD activity (SMAD): at least 30%
- immunohistochemical staining findings (NFκB): consistent with NFκB inhibition
- tumour growth after last administered dose ([2]; 300 μg/Kg, up to 21 days after last dose): no growth was observed
- signs of toxicity ([2]; IV 300 μg/Kg dose level): without any signs of toxicity
- antitumour activity compared to control mice ([2]; IV 300 μg/Kg/day, 5 days on/2 days off, 3 weeks): prominent antitumour activity
- IC50 (A2780 (ovarian)): 0.021 nM
- IC50 (A549 (lung)): 0.034 nM
- IC50 (WI38): 129 nM
- tumour re-growth after last IV dose ([3]; 300 μg/Kg dose level, up to 3 weeks after last dose): did not re-grow
- in vivo antitumour activity compared to control mice ([3]; IV 250 μg/Kg/day): prominent in vivo antitumour activity
- in vivo antitumour activity compared to control mice ([3]; IV 300 μg/Kg/day): prominent in vivo antitumour activity
- signs of toxicity ([3]; IV 250 and 300 μg/Kg dose levels): without any signs of toxicity
- suppression of phosphorylated IκBα (phosphorylated IκBα): significant suppression
- effect on phosphorylated-p65 (phosphorylated-p65): only a marginal effect
- IC50 (primary CLL cells): 0.17 nM

Reference: US9376440B2, “Pyrrolobenzodiazepines as antiproliferative agents” (MEDIMMUNE LIMITED, priority 2012, dated 2016)
